Assay [1] in a line: Effects on AGEs formation (BSA-methylglyoxal, fluorescence). In kind it is biochemical. Here is the method:
The modified procedure of Lee et al. was followed. Bovine serum albumin (10 mg/mL) was incubated with 5 mM methylglyoxal in sodium phosphate buffer (100 mM; pH 7.4). […] All of the reagent and samples were sterilized by filtration through 0.2 μM membrane filters, and the mixture was incubated at 37°C for 7 days. The fluorescence intensity was measured at an excitation wavelength of 330 nm and an emission wavelength of 410 nm with a LS50B fluorescence spectrometer (Perkin-Elmer Ltd., USA). Aminoguanidine was also tested as a known inhibitor.

Another assay can be described thus: ABTS•+ assay. The procedure:
The method of Re et al. was used with slight modification. The ABTS diammonium salt (2 mM) and potassium persulfate (3.5 mM) were mixed and diluted in distilled water kept in the dark at room temperature for 24 h before use. After addition of ABTS^•+ solution to 10 μL of antioxidant compounds were recorded at after 10 min reaction. The percentage inhibition of absorbance at 750 nm is calculated and potted as a function of concentration of antioxidants. Trolox was used as positive control.

Assay [2] deals with T1, rat lens aldose reductase (rAR) (Rattus norvegicus, UniProt P07943).
T1 construct: from tissue; host or cells: lens of Sprague-Dawley rats (homogenate supernatant)
Put plainly: Rat lens aldose reductase (rAR) inhibition, NADPH decrease at 340 nm. It is filed as biochemical.

Assay [3] concerns the target T2, human recombinant aldose reductase (rhAR) (Homo sapiens, UniProt P15121).
T2 construct: purchased Wako Pure Chemical Industries (Osaka, Japan)
Put plainly: Human recombinant aldose reductase (rhAR) inhibition. It is filed as biochemical.

Another assay deals with rat lenses. Nature of the assay: Lens culture and intracellular galactitol measurement. It is filed as cell-based. The following applies: for Galactitol content in rat lens: 30 mM galactose, 5 μg/mL compound, 6 d; for inhibition at 5 µg/mL: Rattus norvegicus, 5 μg/mL, read-out: inhibition of galactitol accumulation in rat lenses. The procedure: Lenses isolated from 10-week-old male rats were cultured for 6 d in TC-199 medium that contained 15% fetal bovine serum 100 units/mL penicillin and 0.1 mg/mL streptomycin under sterile conditions in an atmosphere of 5% CO2 and 95% air at 37°C. Samples were dissolved in dimethyl sulfoxide. The lenses were divided into 5 groups and cultured in medium containing 5 mM glucose, 30 mM galactose, and rosmarinic acid or caffeic acid ethylene ester. Each lens was placed in well containing 1.0 mL of medium. Galactitol was determined by HPLC after its derivatization by reaction with benzoic acid to a fluorescent compound [20].

Assay [4] has as its target T2, human recombinant aldose reductase (rhAR). Nature of the assay: Kinetics of rhAR inhibition, Lineweaver-Burk plots. In kind it is biochemical. The following applies: DL-glyceraldehyde 0.1-1 mM. Here is the method: Reaction mixtures consisted of 0.1 M potassium phosphate, 0.16 mM NADPH, 2 mM of recombinant human aldose reductase (rhAR) with varied concentrations of substrate DL-glyceraldehyde and AR inhibitor in a total volume of 200 μL. Concentrations were ranged from 0.1 to 1 mM for DL-glyceraldehyde, and from 0.1 to 1 mM for active compound. Recombinant human aldose reductase activity was assayed spectrophotometrically by measuring the decrease in absorption of NADPH at 340 nm after substrate addition using Bio Tek Power Wave XS spectrophotometer (Bio Tek Instruments, VT, USA).

The next assay concerns rat erythrocyte. Put plainly: Blood culture (erythrocyte) and intracellular galactitol measurement. It is filed as cell-based. To be noted: for Rat erythrocyte galactitol content: 30 mM galactose, 5 μg/mL compound, 3 h; for inhibition at 5 µg/mL: Rattus norvegicus, Erythrocyte, 5 μg/mL, read-out: inhibition of galactitol accumulation in rat erythrocyte. The procedure: Blood sample was collected in heparin-containing polypropylene tube from 10-week-old male rats. For sugar and sugar alcohol analysis, erythrocytes from heparinized blood were separated from the plasma and buffy coat by centrifuging at 2000×g for 10 min. The cells were washed thrice with normal saline (0.9% NaCl) at 4°C. In the final washing, the cells were centrifuged at 2000 ×g for 10 min to obtain a consistently packed cell preparation. The packed cells (1 mL) were then incubated in a Krebs-Ringer bicarbonate buffer (pH 7.4) containing 30 mM galactose in the presence or absence of samples at 37°C in 5% CO2 for 3 h. The erythrocytes were washed with cold saline by centrifuging at 2000 ×g for 10 min, precipitated by adding 6% of cold perchloric acid (3 mL), and centrifuged again at 2000 ×g for 10 min. The supernatant was neutralized with 2.5 M K2CO3 at 4°C and used for galactitol determination. HPLC analysis for sugar and sugar alcohol in blood was performed with this supernatant of red blood cell homogenate after being benzoylated.

SMILES strings stand for the structures. Like-named read-outs stand apart in the source and are kept apart here.

As usually defined, the IC50 is the concentration needed to halve the response being measured. As a reminder, the inhibition is the relative decrease from the control value, in per cent.

As to `N=C(N)NN` [Aminoguanidine, reference compound], the “AGEs IC50” value in assay [1] amounted to 143.92 ± 0.62 µg/mL. The same compound showed an IC50 in assay [1] of 1945 ± 8.39 µM. Also, the “Inhibition (%) of AGEs” value is reported as 3.96 ± 0.06% in assay [1] (19.61 μg/mL), 37.39 ± 0.52% in assay [1] (98.04 μg/mL) and 66.85 ± 0.13% in assay [1] (196.08 μg/mL).
For `O=C(O)/C=C/c1ccc(O)c(O)c1` [Compound 1, caffeic acid], the IC50 in “ABTS•+ assay” was 12 ± 0.24 µM. Also, the “Inhibition (%) of ABTS•+” value in “ABTS•+ assay” (0.33 μg/mL) was found to be 11.33 ± 0.31%; in the assay “ABTS•+ assay” (1.67 μg/mL), 34.65 ± 1.03%; in “ABTS•+ assay” (3.33 μg/mL), 75.14 ± 1.08%. The “Inhibition (%) of AGEs” value in assay [1] (19.61 μg/mL) amounted to 9.33 ± 0.27%.
Compound `O=C(O)c1ccc(O)c(O)c1` [Compound 2, protocatechuic acid] showed a half-maximal inhibitory concentration (IC50) in the assay “ABTS•+ assay” of 11.6 ± 0.22 µM. Further, the figures for the “Inhibition (%) of ABTS•+” value in “ABTS•+ assay” (0.33 μg/mL), in the assay “ABTS•+ assay” (1.67 μg/mL) and in the assay “ABTS•+ assay” (3.33 μg/mL) were 14.90 ± 0.34%, 53.79 ± 0.92% and 93.42 ± 0.58%, respectively.
Take `O=C(O)C=Cc1ccc(O)cc1` [Compound 3, p-hydroxycinnamic acid]: the half-inhibitory concentration (IC50) in assay [2] (read-out: rAR IC50) is 8.35 ± 0.51 µM; in the assay “ABTS•+ assay”, 5.94 ± 1.01 µM. In addition, the “Inhibition (%) of ABTS•+” value in the assay “ABTS•+ assay” (1.67 μg/mL) stood at 47.60 ± 1.35%; in “ABTS•+ assay” (3.33 μg/mL), 59.65 ± 1.39%; in “ABTS•+ assay” (8.33 μg/mL) it was 74.05 ± 0.69%.
As for `O=C(/C=C/c1ccc(O)c(O)c1)O[C@H](Cc1ccc(O)c(O)c1)C(=O)O` [Compound 4, rosmarinic acid], the 50% inhibitory concentration (IC50) in assay [3] turned out to be 18.6 ± 0.4 µM; in assay [2] (rAR IC50), 2.77 ± 0.48 µM; in the assay “ABTS•+ assay”, 8.79 ± 0.1 µM. Besides, in the assay with rat lenses, the “Galactitol content in rat lens” value is 532.38 ± 6.56 μg/lens wet weight (g). Besides, the figures for the inhibition at 5 µg/mL in the assay with rat lenses and in the assay with rat erythrocyte were about 36.9% and about 35.5%, respectively. The “Inhibition (%) of ABTS•+” value in “ABTS•+ assay” (0.33 μg/mL) came to 9.93 ± 0.27%; in the assay “ABTS•+ assay” (1.67 μg/mL), 36.50 ± 0.78%; in “ABTS•+ assay” (3.33 μg/mL), 78.40 ± 1.17%. Besides, in assay [1] (19.61 μg/mL), the “Inhibition (%) of AGEs” value is 20.67 ± 0.37%. Also, the “inhibition type of rhAR” value in assay [4] is “noncompetitive”. Also, the “Rat erythrocyte galactitol content” value in the assay on rat erythrocyte was determined as 15.05 ± 0.30 µM.
For `C=COC(=O)/C=C/c1ccc(O)c(O)c1` [Compound 5, caffeic acid ethylene ester], the half-inhibitory concentration (IC50) amounted to 12.6 ± 0.32 µM in assay [3], 3.2 ± 0.55 µM in assay [2] (read-out: rAR IC50), 10.5 ± 0.28 µM in “ABTS•+ assay” and 33.2 ± 0.54 µM in assay [1]. Also, in the assay on rat lenses, the “Galactitol content in rat lens” value is given as 653.76 ± 4.68 μg/lens wet weight (g). The inhibition at 5 µg/mL with rat lenses was about 22.5%; in the assay with rat erythrocyte, about 31.7%. Moreover, the “Inhibition (%) of ABTS•+” value in the assay “ABTS•+ assay” (0.33 μg/mL) is given as 13.00 ± 0.13%; in the assay “ABTS•+ assay” (1.67 μg/mL), 50.17 ± 1.75%; in the assay “ABTS•+ assay” (3.33 μg/mL), 84.68 ± 1.41%. In addition, the “Inhibition (%) of AGEs” value in assay [1] (1.96 μg/mL) turned out to be 9.00 ± 0.43%; in assay [1] (4.9 μg/mL) it was 33.94 ± 0.94%; in assay [1] (9.8 μg/mL), 74.81 ± 1.41%. For the same compound, the figures for the “inhibition type of rhAR” value in assay [4] and in assay [4] (listed as caffeic acid ethylene ester (5)) were “noncompetitive inhibition” and “noncompetitive”, respectively. In the assay on rat erythrocyte, the “Rat erythrocyte galactitol content” value was determined as 15.89 ± 0.41 µM.
`O=Cc1ccc(O)c(O)c1` [Compound 6, protocatechualdehyde]: the 50% inhibitory concentration (IC50) in “ABTS•+ assay” came to 12.4 ± 0.33 µM; in assay [1] it was 304 ± 3.41 µM. The results for the “Inhibition (%) of ABTS•+” value in “ABTS•+ assay” (0.33 μg/mL), in the assay “ABTS•+ assay” (1.67 μg/mL) and in the assay “ABTS•+ assay” (3.33 μg/mL) were 13.73 ± 0.37%, 52.73 ± 0.93% and 92.80 ± 1.50%, respectively. Besides, the “Inhibition (%) of AGEs” value was 9.85 ± 0.16% in assay [1] (19.61 μg/mL), 63.45 ± 1.16% in assay [1] (49.02 μg/mL) and 88.69 ± 0.56% in assay [1] (98.04 μg/mL).
In the case of `O=c1c(O)c(-c2ccc(O)c(O)c2)oc2cc(O)cc(O)c12` [Quercetin, quercetin, reference compound], the “Galactitol content in rat lens” value with rat lenses is 448.81 ± 3.38 μg/lens wet weight (g). The inhibition at 5 µg/mL with rat lenses stood at 46.8%; in assay [2] (5 μg/mL) it was 64.7 ± 1.56%; in the assay with rat erythrocyte it was 30.5%. Besides, 1 µg/mL produced 44.7 ± 1.39% inhibition in assay [2] (1 μg/mL). This compound came in with an inhibition at 10 µg/mL in assay [2] (10 μg/mL) of 75.33 ± 0.55%. The “Rat erythrocyte galactitol content” value in the assay with rat erythrocyte worked out at 16.15 ± 0.39 µM.
In the case of `Cc1c(C)c2c(c(C)c1O)CCC(C)(C(=O)O)O2` (stereo not shown) [Trolox, reference compound], in the assay “ABTS•+ assay”, the “ABTS•+ IC50” value worked out at 3.84 ± 0.10 µg/mL. In addition, in “ABTS•+ assay”, the IC50 was found to be 15.3 ± 0.4 µM. Besides, the “Inhibition (%) of ABTS•+” value in the assay “ABTS•+ assay” (1.67 μg/mL) came out at 21.76 ± 1.15%; in “ABTS•+ assay” (3.33 μg/mL), 45.48 ± 1.20%; in “ABTS•+ assay” (16.67 μg/mL), 99.44 ± 0.20%.

Source of the values: PMC3471066, “The Inhibitory Effect of Prunella vulgaris L. on Aldose Reductase and Protein Glycation” (Journal of Biomedicine and Biotechnology, 2012).
